These results are taken from BindingDB's records for doi:10.7270/Q25B012X (Burnham Center For Chemical Genomics, 2012).

Protein Wnt-3a, sequence (P27467 whole entry): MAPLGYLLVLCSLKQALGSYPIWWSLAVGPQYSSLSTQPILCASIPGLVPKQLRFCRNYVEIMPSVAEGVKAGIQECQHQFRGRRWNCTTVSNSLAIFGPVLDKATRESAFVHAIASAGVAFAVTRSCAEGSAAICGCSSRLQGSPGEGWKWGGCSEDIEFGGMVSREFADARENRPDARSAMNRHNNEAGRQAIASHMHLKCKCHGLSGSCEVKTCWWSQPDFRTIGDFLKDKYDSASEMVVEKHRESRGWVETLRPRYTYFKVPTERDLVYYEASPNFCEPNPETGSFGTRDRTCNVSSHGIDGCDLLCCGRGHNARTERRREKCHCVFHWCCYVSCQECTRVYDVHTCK

This assay concerns the target Protein Wnt-3a (Mus musculus, UniProt P27467).
The compound `COc1ccc(-c2c[n+](CC(=O)c3ccccc3)c3n2CCCCC3)cc1` [2-[3-(4-methoxyphenyl)-6,7,8,9-tetrahydro-5H-imidazo[1,2-a]azepin-1-ium-1-yl]-1-phenyl-ethanone;bromide] registered an IC50 of over 50 µM. Under `C[N+]1=C(CC=Nc2ccccc2)C(C)(C)c2ccccc21` [MLS000390698] stands over 50 µM; under `CCCCCCCOc1ccc(OC(=O)c2cccnc2)cc1` [(4-heptoxyphenyl) pyridine-3-carboxylate], over 12.5 µM. Next, `Brc1ccc(-c2csc(N3CCCCCC3)n2)cc1` [1-[4-(4-bromophenyl)-1,3-thiazol-2-yl]azepane]: over 12.5 µM; `Clc1ccc(-c2c[n+](Cc3ccc(Cl)cc3Cl)c3n2CCCCC3)cc1` [SMR000420192]: over 12.5 µM.

With `CCN1C(=O)CCN(C2CCCC2)c2nc(Nc3ccc(C(=O)NC4CCN(C)CC4)cc3OC)ncc21`, the IC50 is over 50 µM. On to `O=c1c2ccccc2sc2c(CO)ccc(NCCN3CCCCC3)c12` [MLS002702047], for which the IC50 was over 50 µM. The compound `CC1=CC(C)C2(COC(c3ccc[n+](C)c3)OC2)C(C)C1` (configuration not stated) [MLS000717774] showed an IC50 of over 50 µM.

As for `Cc1nc2ccccc2c2oc(C(=O)N3CCN(C4CCCCC4)CC3)cc12` [(4-cyclohexylpiperazin-1-yl)-(4-methylfuro[3,2-c]quinolin-2-yl)methanone], the IC50 is over 50 µM.

Turning to `Clc1ccc(-[n+]2cc(-c3ccc(Br)cc3)n3c2CCCCC3)cc1` [MLS001029582], the IC50 is over 50 µM. Next, `CCn1c(CC=Nc2ccccc2)[n+](CC)c2ccc(Cl)cc21` [SMR000173759]: 26.3 µM; `Cc1ccc(C2=C(CC(=O)O)C(=O)CC2)cc1` [2-[2-(4-methylphenyl)-5-oxidanylidene-cyclopenten-1-yl]ethanoic acid]: over 50 µM. Turning to `O=C(Nc1cc(N2CCCCC2)ncn1)c1ccccc1` [N-[6-(1-piperidinyl)-4-pyrimidinyl]benzamide], the IC50 was over 50 µM. Next, `CC(C)(C)C1CCC(OC(=O)C[N+]2(C)CCCCC2)CC1` (configuration not stated) [SMR000306329]: over 50 µM; `Cc1ccc(O)c(NC(=O)COc2cc(C)ccc2C)c1` [2-(2,5-dimethylphenoxy)-N-(2-hydroxy-5-methylphenyl)acetamide]: over 50 µM. As to `CCc1cc(C(=O)NC2CCCN(Cc3ccccc3F)C2)n(C)n1` (configuration not stated) [5-ethyl-N-[1-[(2-fluorophenyl)methyl]piperidin-3-yl]-2-methyl-pyrazole-3-carboxamide], the IC50 was over 50 µM. On to `CC(=O)c1ccc(-[n+]2cc(-c3ccc(C(C)(C)C)cc3)n3c2SCCC3)cc1` [MLS001018012], for which the IC50 was over 50 µM. Next, `CCCN(CCC)CCNC(=O)c1cc2c(=O)n(C)c3ccccc3c2n1C` [MLS000118109]: over 50 µM; `CCOc1ccc(-n2c(O)c(CN=Nc3nc(C)cc(C)n3)c3ccccc3c2=O)cc1` [(4Z)-4-[[(4,6-dimethyl-2-pyrimidinyl)hydrazo]methylidene]-2-(4-ethoxyphenyl)isoquinoline-1,3-dione]: 11.2 µM. Under `Cc1nc2sccn2c1-c1csc(NCc2ccccc2)n1` [4-(6-methyl-5-imidazo[2,1-b]thiazolyl)-N-(phenylmethyl)-2-thiazolamine] stands over 50 µM; under `Brc1ccc(-[n+]2c(-c3ccccc3)cc(-c3ccccc3)cc2-c2ccccc2)cc1` [SMR000841262], 15.6 µM; under `CCC(=O)c1ccc(OCC(O)Cn2c(C)nc3ccccc32)cc1` (configuration not stated) [SMR000075355], over 50 µM. Under `Cc1ccc(S(=O)(=O)N2CCN(C(=O)c3ccc(S(=O)(=O)N4CCCC4)cc3)CC2)cc1` [[4-(Pyrrolidine-1-sulfonyl)-phenyl]-[4-(toluene-4-sulfonyl)-piperazin-1-yl]-methanone] stands over 50 µM. Regarding `CCc1ccccc1NC(=S)NN=C1C(=O)N(C)c2ccc(S(=O)(=O)N3CCOCC3)cc21` [SMR000207996], the 50% inhibitory concentration (IC50) turned out to be 13.3 µM. That is a double-digit micromolar value. Next, `O=C(CCCCCCC(=O)Nc1ccccc1)NO` [Zolinza]: over 50 µM; `COc1ccc(C(=O)C[n+]2cc(-c3ccc(OC)cc3)n3c2CCCC3)cc1` [MLS001018126]: over 50 µM. Under `CCn1c(CC=Nc2ccccc2)[n+](CC)c2cc(Cl)c(Cl)cc21` [N-[(E)-2-[5,6-bis(chloranyl)-1,3-diethyl-benzimidazol-3-ium-2-yl]ethenyl]aniline;iodide] stands 7.29 µM. The compound `CCOc1ccc(-c2nc(CSCC(=O)NCC3CCCO3)c(C)o2)cc1` (configuration not stated) [SMR000635237] returned an IC50 of over 50 µM.

In turn, `O=C(NC1CCCC1)c1cc(COc2ccc3ncccc3c2)on1` showed an IC50 of over 50 µM. Next, `O=C(Nc1cc2c3c(c1)C1CCCC1CN3CC1CCCC21)c1ccc([N+](=O)[O-])cc1` (configuration not stated) [MLS000324904]: over 12.5 µM. Under `COc1cc(C(=O)NC2CCN(C)CC2)ccc1Nc1ncc2c(n1)N(CCc1ccccc1)CCC(=O)N2C` [MLS002232307] stands over 50 µM; under `COc1cccc2nc3c(C(=O)NCCN(C)C)cccc3cc12`, over 50 µM; under `COc1ccc(Nc2nc(N3CCOCC3)nc(N3CCOCC3)n2)c(OC)c1` [SMR000515822], over 50 µM. Next, `Cc1ccc(-c2csc(NC(=O)c3c(C)noc3C)n2)s1`: over 50 µM; `CC(C)(C)[C@H]1COC(=O)[C@H](NC(=O)OCC2c3ccccc3-c3ccccc32)C/C=C\C[C@@H](CC(=O)N(CCO)Cc2ccccc2)C(=O)N1` [MLS002320431]: over 12.5 µM.

For `O=C(Cc1csc(Nc2[nH]c(=S)nc3ccccc23)n1)NCCCN1CCN(c2ccccc2F)CC1` [SMR000310923], the IC50 was over 50 µM. Next, `Cc1ccc(C)c(-c2csc(NC(=O)C3=COCCO3)n2)c1` [SMR000713303]: over 50 µM. Under `CCCCCCCOc1ccc(OC(=O)c2ccncc2)cc1` [(4-heptoxyphenyl) pyridine-4-carboxylate] stands over 12.5 µM; under `COc1cc2c(c(OC)c1OC)-c1ccc(N(C)CC(OC)OC)c(=O)cc1[C@@H](NC(C)=O)CC2` [SMR000540275], over 50 µM. Next, `CN(C)CCn1c2ccccc2c2nc3ccc([N+](=O)[O-])cc3cc21` [N,N-dimethyl-2-(2-nitro-10-indolo[3,2-b]quinolinyl)ethanamine]: over 50 µM; `O=C1NC(=Cc2ccc(O)cc2)C(=O)C1=CNCc1ccccc1` [(3Z,5Z)-3-[(benzylamino)methylidene]-5-[(4-hydroxyphenyl)methylidene]pyrrolidine-2,4-dione]: 7.28 µM; `COc1cc(C(=O)NC2CCN(C)CC2)ccc1Nc1ncc2c(n1)N(Cc1ccccc1)CCC(=O)N2C` [3-methoxy-4-[[5-methyl-6-oxo-9-(phenylmethyl)-7,8-dihydropyrimido[4,5-b][1,4]diazepin-2-yl]amino]-N-(1-methyl-4-piperidinyl)benzamide]: over 50 µM. In the case of `CC(C)C(=O)N1CCN(c2ccccc2NC(=O)COc2ccccc2)CC1` [N-[2-[4-(2-methyl-1-oxopropyl)-1-piperazinyl]phenyl]-2-phenoxyacetamide], the IC50 is over 50 µM. Under `CC(=O)c1c(C)[nH]c(C(=O)OCC(=O)Nc2sc3c(c2C#N)CCCC3)c1C` [SMR000249195] stands over 50 µM; under `CCOP(=O)(CCP(=O)(OCC)OCC)OCC` [MLS002702923], 11.8 µM; under `CCCCCCCNC1=CC(=O)CC(c2ccccc2)C1` (configuration not stated) [SMR000203844], over 50 µM. Turning to `CCCc1nc(SCC(=O)Nc2nnc(CC)s2)c2c(=O)n(C)c(=O)n(C)c2n1` [SMR000806028], the IC50 was over 50 µM.

`CC(=O)N1c2ccc(S(=O)(=O)N3CCC(C(=O)N4CCCCC4)CC3)cc2CC1C` (configuration not stated) [1-[2-methyl-5-(4-piperidin-1-ylcarbonylpiperidin-1-yl)sulfonyl-2,3-dihydroindol-1-yl]ethanone] came in with an IC50 of over 50 µM. Under `CCOc1ccc(-c2nc(CSCC(=O)NC3CC3)c(C)o2)cc1` [SMR000635235] stands over 50 µM. Next, `CC(NC(=O)c1cc2c(=O)n3ccccc3nc2n(CC2CCCO2)c1=N)c1ccccc1` (configuration not stated) [MLS001217747]: over 50 µM; `CC(C)(C)OC(=O)N1CCC(c2cc(-c3cccs3)n[nH]2)CC1` [4-(3-thiophen-2-yl-1H-pyrazol-5-yl)-1-piperidinecarboxylic acid tert-butyl ester]: over 50 µM. Under `CC(N=Nc1ccc(Cl)nn1)c1ccccc1O` (configuration not stated) [MLS001233678] stands over 50 µM. In turn, `CCn1c(=O)cc(SCC(=O)N2CCN(C3CCCCC3)CC2)c2ccccc21` [MLS000092496] registered an IC50 of over 50 µM. Under `O=C(Nc1ccncc1)c1ccc(-c2ccccc2)cc1` [4-phenyl-N-(4-pyridyl)benzamide] stands over 50 µM; under `CCOc1ccc2[nH]c3c(N4CCN(C(=O)c5ccco5)CC4)ncnc3c2c1` [[4-(8-ethoxy-5H-pyrimido[5,4-b]indol-4-yl)-1-piperazinyl]-(2-furanyl)methanone], over 50 µM; under `COc1cc(C(=O)NC2CCN(C)CC2)ccc1Nc1ncc2c(n1)N(C1CCCCC1)CCC(=O)N2C` [SMR001307858], over 50 µM. Under `COCCNC(=O)CSCc1nc(-c2ccc(SC)cc2)oc1C` [MLS000089367] stands over 50 µM. `CC(C)(C)c1ccc(C(=O)NC(=S)Nc2ccc(N3CCOCC3)cc2)cc1` returned an IC50 of over 50 µM. Under `COc1ccc(CN(C)C(=O)c2cccc(NC(=O)Cc3sc(N4CCCCC4)nc3O)c2)c(OC)c1` [MLS002180955] stands 21.7 µM. Under `CCCCn1c(SCc2c(C)noc2C)nc2cc(S(N)(=O)=O)ccc21` [1-butyl-2-[(3,5-dimethyl-1,2-oxazol-4-yl)methylsulfanyl]benzimidazole-5-sulfonamide] stands over 50 µM; under `Cc1cc(N=NCc2ccc(O)cc2O)nc(-n2nc(C)cc2C)n1` [(4E)-4-[[2-[2-(3,5-dimethylpyrazol-1-yl)-6-methyl-pyrimidin-4-yl]hydrazinyl]methylidene]-3-oxidanyl-cyclohexa-2,5-dien-1-one], 41.3 µM. `O=C(C[n+]1cc(-c2ccccc2)n2c1CCCCC2)c1ccc(Cl)cc1` [1-[2-(4-Chloro-phenyl)-2-oxo-ethyl]-3-phenyl-6,7,8,9-tetrahydro-5H-imidazo[1,2-a]azepin-1-ium] registered an IC50 of over 50 µM.

As a reminder, the IC50 is the point on the concentration scale where inhibition reaches its midpoint. Read a low IC50 as greater potency.
